target: HPK1 (Homo sapiens (Human), UniProt Q92918); experiment: HPK1 Inhibition Assay (ADP-Glo kinase assay); type: biochemical; details: ATP 10 μM
In short: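 ADP-Glo luminescence read-out after 1 h room-temperature kinase reaction with 10 μM ATP and 0.1 μg/ml MBP. Recombinant human HPK1 at 7.5 ng/μl; buffer 40 mM Tris pH 7.5, 20 mM MgCl2. Compounds serially diluted 5-fold over 10 points from 10 mM DMSO stock.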

Chain of HPK1 (Q92918 1-346 limits assumed): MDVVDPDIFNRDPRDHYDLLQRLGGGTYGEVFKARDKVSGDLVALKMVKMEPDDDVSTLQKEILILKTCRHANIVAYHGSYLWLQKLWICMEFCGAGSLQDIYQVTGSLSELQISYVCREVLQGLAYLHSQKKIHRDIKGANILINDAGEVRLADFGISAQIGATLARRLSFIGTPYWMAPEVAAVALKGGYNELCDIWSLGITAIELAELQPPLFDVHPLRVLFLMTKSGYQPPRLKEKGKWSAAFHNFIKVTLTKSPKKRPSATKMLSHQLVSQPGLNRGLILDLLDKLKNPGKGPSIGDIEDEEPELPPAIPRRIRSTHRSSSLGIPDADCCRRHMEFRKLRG

IC50, < 100 nM:
C[C@@H]1CN(c2c(NC(=O)c3ccc(=O)n(-c4c(F)cccc4F)n3)ccc3nn(C4CC(F)(F)C4)cc23)C[C@@H]1N [Example 307, N-(4-((3R,4R)-3-amino-4-methylpyrrolidin-1-yl)-2-(3,3-difluorocyclobutyl)-2H-indazol-5-yl)-1-(2,6-difluorophenyl)-6-oxo-1,6-dihydropyridazine-3-carboxamide]
C[C@@H]1CN(c2c(NC(=O)c3ccc(=O)n(-c4c(F)cccc4F)n3)ccc3nn(C4CCN(C)CC4)cc23)C[C@@H]1N [Example 308, N-(4-((3R,4R)-3-amino-4-methylpyrrolidin-1-yl)-2-(1-methylpiperidin-4-yl)-2H-indazol-5-yl)-1-(2,6-difluorophenyl)-6-oxo-1,6-dihydropyridazine-3-carboxamide]
C[C@H]1CN(c2c(NC(=O)c3ccc(=O)n(-c4c(F)cccc4F)n3)ccc3nn(C4CC(F)(F)C4)cc23)C[C@@H]1N [Example 309, N-(4-((3R,4S)-3-amino-4-methylpyrrolidin-1-yl)-2-(3,3-difluorocyclobutyl)-2H-indazol-5-yl)-1-(2,6-difluorophenyl)-6-oxo-1,6-dihydropyridazine-3-carboxamide]
C[C@H]1CN(c2c(NC(=O)c3ccc(=O)n(-c4c(F)cccc4F)n3)ccc3nn(C4(C)CC4)cc23)C[C@@H]1N [Example 310, N-(4-((3R,4S)-3-amino-4-methylpyrrolidin-1-yl)-2-(1-methylcyclopropyl)-2H-indazol-5-yl)-1-(2,6-difluorophenyl)-6-oxo-1,6-dihydropyridazine-3-carboxamide]
CC1(n2cc3c(N4C[C@H](N)C5(CC5)C4)c(NC(=O)c4ccc(=O)n(-c5c(F)cccc5F)n4)ccc3n2)CC1 [Example 311, (R)-N-(4-(7-amino-5-azaspiro[2.4]heptan-5-yl)-2-(1-methylcyclopropyl)-2H-indazol-5-yl)-1-(2,6-difluorophenyl)-6-oxo-1,6-dihydropyridazine-3-carboxamide]
C[C@H]1CN(c2c(NC(=O)c3ccc(=O)n(-c4c(F)cccc4F)n3)ccc3nn(C45CCC(CC4)C5)cc23)C[C@@H]1N [Example 312, N-(4-((3R,4S)-3-amino-4-methylpyrrolidin-1-yl)-2-(bicyclo[2.2.1]heptan-1-yl)-2H-indazol-5-yl)-1-(2,6-difluorophenyl)-6-oxo-1,6-dihydropyridazine-3-carboxamide]
C[C@@H]1CN(c2c(NC(=O)c3ccc(=O)n(-c4c(F)cccc4F)n3)ccc3nn(C4(C(F)(F)F)CC4)cc23)C[C@@H]1N [Example 315, N-(4-((3R,4R)-3-amino-4-methylpyrrolidin-1-yl)-2-(1-(trifluoromethyl)cyclopropyl)-2H-indazol-5-yl)-1-(2,6-difluorophenyl)-6-oxo-1,6-dihydropyridazine-3-carboxamide]
C[C@@H]1CN(c2c(NC(=O)c3ccc(=O)n(-c4c(F)cccc4F)n3)ccc3nn(C45CC(C4)C5)cc23)C[C@@H]1N [Example 316, N-(4-((3R,4R)-3-amino-4-methylpyrrolidin-1-yl)-2-(bicyclo[1.1.1]pentan-1-yl)-2H-indazol-5-yl)-1-(2,6-difluorophenyl)-6-oxo-1,6-dihydropyridazine-3-carboxamide]
C[C@@H]1CN(c2c(NC(=O)c3ccc(=O)n(-c4c(F)cccc4F)n3)ccc3nn(C4(C)CCC4)cc23)C[C@@H]1N [Example 317, 1-(2,6-difluorophenyl)-N-{4-[(3R,4R)-3-amino-4-methyltetrahydro-1H-pyrrol-1-yl]-2-(methylcyclobutyl)indazol-5-yl}-6-oxo-1,2-diazine-3-carboxamide]
C[C@@H]1CN(c2c(NC(=O)c3ccc(=O)n(-c4c(F)cccc4F)n3)ccc3nn(C45CC(C)(C4)C5)cc23)C[C@@H]1N [Example 318, N-(4-((3R,4R)-3-amino-4-methylpyrrolidin-1-yl)-2-(3-methylbicyclo[1.1.1]pentan-1-yl)-2H-indazol-5-yl)-1-(2,6-difluorophenyl)-6-oxo-1,6-dihydropyridazine-3-carboxamide]
C[C@@H]1CN(c2c(NC(=O)c3ccc(=O)n(-c4c(F)cccc4F)n3)ccc3nn(C45CC(C(F)(F)F)(C4)C5)cc23)C[C@@H]1N [Example 319, N-(4-((3R,4R)-3-amino-4-methylpyrrolidin-1-yl)-2-(3-(trifluoromethyl)bicyclo[1.1.1]pentan-1-yl)-2H-indazol-5-yl)-1-(2,6-difluorophenyl)-6-oxo-1,6-dihydropyridazine-3-carboxamide]
C[C@H]1CN(c2c(NC(=O)c3ccc(=O)n(-c4c(F)cccc4F)n3)ccc3nn(C45CC(C4)C5)cc23)C[C@@H]1N [Example 320, N-(4-((3R,4S)-3-amino-4-methylpyrrolidin-1-yl)-2-(bicyclo[1.1.1]pentan-1-yl)-2H-indazol-5-yl)-1-(2,6-difluorophenyl)-6-oxo-1,6-dihydropyridazine-3-carboxamide]
C[C@H]1CN(c2c(NC(=O)c3ccc(=O)n(-c4c(F)cccc4F)n3)ccc3nn(C4(C)CCC4)cc23)C[C@@H]1N [Example 321, N-(4-((3R,4S)-3-amino-4-methylpyrrolidin-1-yl)-2-(1-methylcyclobutyl)-2H-indazol-5-yl)-1-(2,6-difluorophenyl)-6-oxo-1,6-dihydropyridazine-3-carboxamide]
CC1(C)CN(c2c(NC(=O)c3ccc(=O)n(-c4c(F)cccc4F)n3)ccc3nn([C@@H]4CCOC4)cc23)C[C@@H]1N [Example 322, N-(4-((R)-4-amino-3,3-dimethylpyrrolidin-1-yl)-2-((R)-tetrahydrofuran-3-yl)-2H-indazol-5-yl)-1-(2,6-difluorophenyl)-6-oxo-1,6-dihydropyridazine-3-carboxamide]
CC1(C)CN(c2c(NC(=O)c3ccc(=O)n(-c4c(F)cccc4F)n3)ccc3nn([C@@H]4CCOC4)cc23)C[C@H]1N [Example 323, N-(4-((S)-4-amino-3,3-dimethylpyrrolidin-1-yl)-2-((R)-tetrahydrofuran-3-yl)-2H-indazol-5-yl)-1-(2,6-difluorophenyl)-6-oxo-1,6-dihydropyridazine-3-carboxamide]
CC1(C)CN(c2c(NC(=O)c3ccc(=O)n(-c4c(F)cccc4F)n3)ccc3nn([C@H]4CCOC4)cc23)C[C@@H]1N [Example 324, N-(4-((R)-4-amino-3,3-dimethylpyrrolidin-1-yl)-2-((S)-tetrahydrofuran-3-yl)-2H-indazol-5-yl)-1-(2,6-difluorophenyl)-6-oxo-1,6-dihydropyridazine-3-carboxamide]
CC1(C)CN(c2c(NC(=O)c3ccc(=O)n(-c4c(F)cccc4F)n3)ccc3nn([C@H]4CCOC4)cc23)C[C@H]1N [Example 325, N-(4-((S)-4-amino-3,3-dimethylpyrrolidin-1-yl)-2-((S)-tetrahydrofuran-3-yl)-2H-indazol-5-yl)-1-(2,6-difluorophenyl)-6-oxo-1,6-dihydropyridazine-3-carboxamide]
C[C@H]1CN(c2c(NC(=O)c3ccc(=O)n(-c4c(F)cccc4F)n3)ccc3nn([C@@H]4CCOC4)cc23)C[C@@H]1N [Example 326, N-(4-((3R,4S)-3-amino-4-methylpyrrolidin-1-yl)-2-((R)-tetrahydrofuran-3-yl)-2H-indazol-5-yl)-1-(2,6-difluorophenyl)-6-oxo-1,6-dihydropyridazine-3-carboxamide]
C[C@H]1CN(c2c(NC(=O)c3ccc(=O)n(-c4c(F)cccc4F)n3)ccc3nn([C@H]4CCOC4)cc23)C[C@@H]1N [Example 327, N-(4-((3R,4S)-3-amino-4-methylpyrrolidin-1-yl)-2-((S)-tetrahydrofuran-3-yl)-2H-indazol-5-yl)-1-(2,6-difluorophenyl)-6-oxo-1,6-dihydropyridazine-3-carboxamide]
COCCn1cc2c(N3CC[C@@H](N)C3)c(NC(=O)c3ccc(=O)n(-c4c(F)cccc4F)n3)ccc2n1 [Example 328, (R)-N-(4-(3-aminopyrrolidin-1-yl)-2-(2-methoxyethyl)-2H-indazol-5-yl)-1-(2,6-difluorophenyl)-6-oxo-1,6-dihydropyridazine-3-carboxamide]
CCn1cc2c(N3CC[C@@H](N)C3)c(NC(=O)c3ccc(=O)n(-c4c(F)cccc4F)n3)ccc2n1 [Example 329, (R)-N-(4-(3-aminopyrrolidin-1-yl)-2-ethyl-2H-indazol-5-yl)-1-(2,6-difluorophenyl)-6-oxo-1,6-dihydropyridazine-3-carboxamide]
N[C@@H]1CCN(c2c(NC(=O)c3ccc(=O)n(-c4c(F)cccc4F)n3)ccc3nn(CC4CC4)cc23)C1 [Example 330, (R)-N-(4-(3-aminopyrrolidin-1-yl)-2-(cyclopropylmethyl)-2H-indazol-5-yl)-1-(2,6-difluorophenyl)-6-oxo-1,6-dihydropyridazine-3-carboxamide]
CC(C)Cn1cc2c(N3CC[C@@H](N)C3)c(NC(=O)c3ccc(=O)n(-c4c(F)cccc4F)n3)ccc2n1 [Example 331, (R)-N-(4-(3-aminopyrrolidin-1-yl)-2-isobutyl-2H-indazol-5-yl)-1-(2,6-difluorophenyl)-6-oxo-1,6-dihydropyridazine-3-carboxamide]
C[C@@H]1CN(c2c(NC(=O)c3ccc(=O)n(-c4c(F)cccc4F)n3)ccc3nn(C4CCC(F)(F)CC4)cc23)C[C@@H]1N [Example 332, N-(4-((3R,4R)-3-amino-4-methylpyrrolidin-1-yl)-2-(4,4-difluorocyclohexyl)-2H-indazol-5-yl)-1-(2,6-difluorophenyl)-6-oxo-1,6-dihydropyridazine-3-carboxamide]
